System: Pseudomonas aeruginosa DSM # 939
Test: Minimum Inhibitory Concentration (MIC) test with synergy index (Kull method)
Format: cell-based
Settings: single biocide acting alone; TSB broth, 30° C., 48 hours, ~1×10^6 CFU/ml
Method: The synergism of the biocides combination of the present invention was determined using the method described by Kull, F.C., et. al in Applied Microbiology 9:538-541 (1961).
The formula to calculate the synergy index (SI) is
• QA=concentration of compound A in ppm, acting alone produced an end point (growth/no growth) • Qa=concentration of compound A in ppm, in the mixture, which produced an end point (growth/no growth) • QB=concentration of compound B in ppm, acting alone produced an end point (growth/no growth) • Qb=concentration of compound B in ppm, in the mixture, which produced an end point (growth/no growth)
The Minimum Inhibitory Test (MIC) is designed to evaluate the lowest concentration of a biocide, biocide blend or biocide combination to prevent bacteria growing in a defined broth.
Minimum Inhibitory Concentration (MIC) Testing Protocol • 1. […]
The culture was maintained as a glycerol stock at −80° C. in cryovials. […] Reading of the results was carried out by measuring absorbance at 600 nm for each sample at the beginning of the test (tzero) and after incubation (tendpoint). tendpoint was chosen at 48 hours for bacteria. The difference in absorbance between tendpoint and tzero was used to assign a score (Δ>0.2 confirms growth while Δ≦0.2 confirms no growth) from which the MIC values were calculated.

| Structure (SMILES) | Minimum Concentration (active ppm) to Inhibit Growth, active alone [ppm] |
| --- | --- |
| Cc1cc(O)ccc1Cl [Chlorocresol, 4-chloro-3-methylphenol] | 1539 |
| Cn1sc2ccccc2c1=O [MBIT, 2-methyl-1,2-benzothiazol-3(2H)-one] | 62 |
